Key:
[1] = system: estrogenicity; details: Jobling and Sumpter 1993; cited from earlier work
[2] = system: vitellogenin gene expression in trout hepatocytes; assay: Relative estrogenicity compared to estradiol; standard test procedure and stimulation of vitellogenin gene expression in trout hepatocytes; details: for Relative Estrogenicity: compared to estradiol, assigned an estrogenicity value of unity; for estrogenicity (result in words): standard test procedure, vitellogenin gene expression in trout hepatocytes

Row | Molecule | times less estrogenic compared to Estradiol [1] | Relative Estrogenicity [2] | estrogenicity (result in words) [2]
1 | CC(C)(C)c1ccc(O)cc1 [4-t-butylphenol] | 1,100 times |  | 
2 | CC(C)(C)CC(C)(C)c1ccc(O)cc1 [4-t-octylphenol] | 1,200 times | 0.00037 | relatively high estrogenicity
3 | C[C@]12CC[C@@H]3c4ccc(O)cc4CC[C@H]3[C@@H]1CC[C@@H]2O [Estradiol] |  | 1 | 
4 | nonylphenol | 9,000 times | 0.000111 | relatively high estrogenicity
